From PubChem BioAssay AID1259407 (Chemical Carcinogenesis Research Information System (CCRIS), 2018) come the findings set out here.

Activity calls are given as the source filed them. How the calls were made is not given here.

The test system of this series is CCRIS mutagenicity, Ames/micronucleus/aberration tests. Put plainly: CCRIS mutagenicity studies.
The mark [1] stands for this setting: Test System: AMES SALMONELLA TYPHIMURIUM, Strain/Indicator: TA98, Metabolic Activation: NONE, Method: PREINCUBATION
[2] abbreviates: Test System: AMES SALMONELLA TYPHIMURIUM, Strain/Indicator: TA98, Metabolic Activation: RAT, LIVER, S-9, PCB, Method: PREINCUBATION
Where [3] appears, read: Test System: AMES SALMONELLA TYPHIMURIUM, Strain/Indicator: TA100, Metabolic Activation: NONE, Method: PREINCUBATION
Setting [4] is: Test System: AMES SALMONELLA TYPHIMURIUM, Strain/Indicator: TA100, Metabolic Activation: RAT, LIVER, S-9, PCB, Method: PREINCUBATION

As for `CNc1ccc2nc(C)c(C)nc2c1C`, the mutagenic call is “inactive; negative” under setting [1], “active; positive” under setting [2], “inactive; negative” under setting [3] and “active; positive” under setting [4].
For the compound `CCN(CC)c1ccc(N=O)c(O)c1`, the mutagenic call is “inactive; negative” (Test System: AMES SALMONELLA TYPHIMURIUM, Strain/Indicator: TA97, Metabolic Activation: HAMSTER, LIVER, S-9, AROCLOR 1254 (10%), Method: PREINCUBATION); “inactive; negative” (Test System: AMES SALMONELLA TYPHIMURIUM, Strain/Indicator: TA97, Metabolic Activation: HAMSTER, LIVER, S-9, AROCLOR 1254 (30%), Method: PREINCUBATION); “inactive; negative” (Test System: AMES SALMONELLA TYPHIMURIUM, Strain/Indicator: TA97, Metabolic Activation: NONE, Method: PREINCUBATION); “inactive; negative” (Test System: AMES SALMONELLA TYPHIMURIUM, Strain/Indicator: TA97, Metabolic Activation: RAT, LIVER, S-9, AROCLOR 1254 (10%), Method: PREINCUBATION); “inactive; negative” (Test System: AMES SALMONELLA TYPHIMURIUM, Strain/Indicator: TA97, Metabolic Activation: RAT, LIVER, S-9, AROCLOR 1254 (30%), Method: PREINCUBATION); “inactive; negative” (Test System: AMES SALMONELLA TYPHIMURIUM, Strain/Indicator: TA98, Metabolic Activation: HAMSTER, LIVER, S-9, AROCLOR 1254 (5 OR 10%), Method: PREINCUBATION). Further, the mutagenic call by setting is: (Test System: AMES SALMONELLA TYPHIMURIUM, Strain/Indicator: TA98, Metabolic Activation: HAMSTER, LIVER, S-9, AROCLOR 1254 (30%), Method: PREINCUBATION) “inactive; negative”; under setting [1], “inactive; negative”; (Test System: AMES SALMONELLA TYPHIMURIUM, Strain/Indicator: TA98, Metabolic Activation: RAT, LIVER, S-9, AROCLOR 1254 (5 OR 10%), Method: PREINCUBATION) “inactive; negative”; (Test System: AMES SALMONELLA TYPHIMURIUM, Strain/Indicator: TA98, Metabolic Activation: RAT, LIVER, S-9, AROCLOR 1254 (30%), Method: PREINCUBATION) “inactive; negative”; (Test System: AMES SALMONELLA TYPHIMURIUM, Strain/Indicator: TA100, Metabolic Activation: HAMSTER, LIVER, S-9, AROCLOR 1254 (10%), Method: PREINCUBATION) “inactive; negative”; (Test System: AMES SALMONELLA TYPHIMURIUM, Strain/Indicator: TA100, Metabolic Activation: HAMSTER, LIVER, S-9, AROCLOR 1254 (30%), Method: PREINCUBATION) “inactive; negative”. For the same compound, the mutagenic call was “inactive; negative” under setting [3]; “inactive; negative” (Test System: AMES SALMONELLA TYPHIMURIUM, Strain/Indicator: TA100, Metabolic Activation: RAT, LIVER, S-9, AROCLOR 1254 (10%), Method: PREINCUBATION); “inactive; negative” (Test System: AMES SALMONELLA TYPHIMURIUM, Strain/Indicator: TA100, Metabolic Activation: RAT, LIVER, S-9, AROCLOR 1254 (30%), Method: PREINCUBATION); “inactive; negative” (Test System: AMES SALMONELLA TYPHIMURIUM, Strain/Indicator: TA1535, Metabolic Activation: HAMSTER, LIVER, S-9, AROCLOR 1254 (10%), Method: PREINCUBATION); “inactive; negative” (Test System: AMES SALMONELLA TYPHIMURIUM, Strain/Indicator: TA1535, Metabolic Activation: HAMSTER, LIVER, S-9, AROCLOR 1254 (30%), Method: PREINCUBATION); “inactive; negative” (Test System: AMES SALMONELLA TYPHIMURIUM, Strain/Indicator: TA1535, Metabolic Activation: NONE, Method: PREINCUBATION). Also, the mutagenic call is, setting by setting: (Test System: AMES SALMONELLA TYPHIMURIUM, Strain/Indicator: TA1535, Metabolic Activation: RAT, LIVER, S-9, AROCLOR 1254 (10%), Method: PREINCUBATION) “inactive; negative”; (Test System: AMES SALMONELLA TYPHIMURIUM, Strain/Indicator: TA1535, Metabolic Activation: RAT, LIVER, S-9, AROCLOR 1254 (30%), Method: PREINCUBATION) “inactive; negative”; (Test System: AMES SALMONELLA TYPHIMURIUM, Strain/Indicator: TA1537, Metabolic Activation: HAMSTER, LIVER, S-9, AROCLOR 1254 (30%), Method: PREINCUBATION) “inactive; negative”; (Test System: AMES SALMONELLA TYPHIMURIUM, Strain/Indicator: TA1537, Metabolic Activation: NONE, Method: PREINCUBATION) “inactive; negative”; (Test System: AMES SALMONELLA TYPHIMURIUM, Strain/Indicator: TA1537, Metabolic Activation: RAT, LIVER, S-9, AROCLOR 1254 (30%), Method: PREINCUBATION) “inactive; negative”; (Test System: AMES SALMONELLA TYPHIMURIUM, Strain/Indicator: TA1538, Metabolic Activation: HAMSTER, LIVER, S-9, AROCLOR 1254 (10%), Method: PREINCUBATION) “inactive; negative”. Besides, the mutagenic call was “inactive; negative” (Test System: AMES SALMONELLA TYPHIMURIUM, Strain/Indicator: TA1538, Metabolic Activation: HAMSTER, LIVER, S-9, AROCLOR 1254 (30%), Method: PREINCUBATION); “inactive; negative” (Test System: AMES SALMONELLA TYPHIMURIUM, Strain/Indicator: TA1538, Metabolic Activation: NONE, Method: PREINCUBATION); “inactive; negative” (Test System: AMES SALMONELLA TYPHIMURIUM, Strain/Indicator: TA1538, Metabolic Activation: RAT, LIVER, S-9, AROCLOR 1254 (10 OR 30%), Method: PREINCUBATION).
In the case of `N#Cc1cccc2cccnc12`, the mutagenic call (Test System: AMES SALMONELLA TYPHIMURIUM, Strain/Indicator: TA100, Metabolic Activation: S-9, Method: PREINCUBATION) was “active; positive”.
Turning to `Cc1cc(O)c2c(c1)C(=O)c1cccc(O)c1C2=O`, the mutagenic call is, setting by setting: (End Point: IN VITRO CHROMOSOMAL ABERRATIONS, Test System: CHO CELLS, Metabolic Activation: MALE WISTAR RAT, LIVER, S-9) “inactive; negative; tested to limit of solubility”; (End Point: IN VITRO CHROMOSOMAL ABERRATIONS, Test System: CHO CELLS, Metabolic Activation: NONE) “inactive; negative; tested to limit of solubility”; under setting [1], “inactive; negative”; (Test System: AMES SALMONELLA TYPHIMURIUM, Strain/Indicator: TA98, Metabolic Activation: NONE, Method: STANDARD PLATE) “inactive; negative”; (Test System: AMES SALMONELLA TYPHIMURIUM, Strain/Indicator: TA98, Metabolic Activation: RAT, LIVER, S-9, AROCLOR 1254, Method: STANDARD PLATE) “inactive; negative”; under setting [2], “inactive; negative”. The mutagenic call under setting [3] was “inactive; negative”; the mutagenic call (Test System: AMES SALMONELLA TYPHIMURIUM, Strain/Indicator: TA100, Metabolic Activation: NONE, Method: STANDARD PLATE) is “inactive; negative”; the mutagenic call (Test System: AMES SALMONELLA TYPHIMURIUM, Strain/Indicator: TA100, Metabolic Activation: RAT, LIVER, S-9, AROCLOR 1254, Method: STANDARD PLATE) was “inactive; negative”; the mutagenic call under setting [4] is “inactive; negative”; the mutagenic call (Test System: AMES SALMONELLA TYPHIMURIUM, Strain/Indicator: TA102, Metabolic Activation: NONE, Method: PREINCUBATION) is “active; positive”; the mutagenic call (Test System: AMES SALMONELLA TYPHIMURIUM, Strain/Indicator: TA102, Metabolic Activation: RAT, LIVER, S-9, Method: PREINCUBATION) was “active; positive”. Moreover, the mutagenic call (Test System: AMES SALMONELLA TYPHIMURIUM, Strain/Indicator: TA1535, Metabolic Activation: NONE, Method: STANDARD PLATE) was “inactive; negative”; the mutagenic call (Test System: AMES SALMONELLA TYPHIMURIUM, Strain/Indicator: TA1535, Metabolic Activation: RAT, LIVER, S-9, AROCLOR 1254, Method: STANDARD PLATE) is “inactive; negative”; the mutagenic call (Test System: AMES SALMONELLA TYPHIMURIUM, Strain/Indicator: TA1537, Metabolic Activation: RAT, LIVER, S-9, AROCLOR 1254, Method: STANDARD PLATE) was “active; positive”; the mutagenic call (Test System: AMES SALMONELLA TYPHIMURIUM, Strain/Indicator: TA1537, Metabolic Activation: RAT, LIVER, S-9, Method: PREINCUBATION) is “active; positive”; the mutagenic call (Test System: AMES SALMONELLA TYPHIMURIUM, Strain/Indicator: TA1538, Metabolic Activation: NONE, Method: STANDARD PLATE) is “inactive; negative”; the mutagenic call (Test System: AMES SALMONELLA TYPHIMURIUM, Strain/Indicator: TA1538, Metabolic Activation: RAT, LIVER, S-9, AROCLOR 1254, Method: STANDARD PLATE) is “inactive; negative”.
